What was measured:
[1] = tested on: MCF7, hormone-independent human breast cancer cells; test: Proliferation assay, MCF7; type: cell-based; details: MCF7, 96 h, 4 days incubation, crystal violet
Excerpt: (§1) Cultivated human tumor cells (MCF7, hormone-independent human breast cancer cells, related to ATCC HTB22; NCI-H460, human non-small-cell lung cancer cells, ATCC HTB-177, HCT 116, human colon cancer cells, ATCC CCL-247; DU 145, hormone-independent human prostate cancer cells, ATCC HTB-81; MaTu-MDR, hormone-independent, multiple pharmaceutical agent-resistant human breast cancer cells, EPO-GmbH, Berlin) were flattened out at a density of about 5000 cells/measuring point, depending on the growth rate of the respective cells, in a 96-well multititer plate in 200 μl of the corresponding growth medium. After 24 hours, the cells of one plate (zero-point plate) were colored with crystal violet (see below), while the medium of the other plates was replaced by fresh culture medium (200 μl), to which the test substances were added in various concentrations (0 μm, as well as in the range of 0.01-30 μm; the final concentration of the solvent dimethyl sulfoxide was 0.5%). The cells were incubated for 4 days in the presence of test substances. The cell proliferation was determined by coloring the cells with crystal violet: the cells were fixed by adding 20 μl/measuring point of an 11% glutaric aldehyde solution for 15 minutes at room temperature. After three washing cycles of the fixed cells with water, the plates were dried at room temperature. The cells were colored by adding 100 μl/measuring point of a 0.1% crystal violet solution (the pH was set at 3 by adding acetic acid). After three washing cycles of the colored cells with water, the plates were dried at room temperature. The dye was dissolved by adding 100 μl/measuring point of a 10% acetic acid solution. The extinction was determined by photometry at a wavelength of 595 nm. The change of cell growth, in percent, was calculated by normalization of the measured values to the extinction values of the zero-point plate (=0%) and the extinction of the untreated (0 μm) cells (=100%).

[2] = target: T1, CDK1/CycB (Homo sapiens, UniProt P06493); test: CDK1/CycB Kinase Assay; type: biochemical; details: histone IIIS substrate, 33P-ATP, 15 minutes at 22° C.
T1 construct: GST; purchased ProQinase GmbH, Freiburg; host or cells: baculovirus-infected insect cells (Sf9)
T1 sequence (P06493 whole entry): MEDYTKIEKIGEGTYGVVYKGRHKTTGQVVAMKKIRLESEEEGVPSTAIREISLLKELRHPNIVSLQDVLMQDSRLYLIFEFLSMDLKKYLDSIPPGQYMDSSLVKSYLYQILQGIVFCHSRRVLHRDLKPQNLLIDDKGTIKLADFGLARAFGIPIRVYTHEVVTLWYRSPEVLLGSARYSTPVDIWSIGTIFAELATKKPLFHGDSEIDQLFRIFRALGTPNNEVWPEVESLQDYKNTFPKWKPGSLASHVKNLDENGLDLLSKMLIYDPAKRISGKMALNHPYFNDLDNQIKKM
T1 sequence (P14635 whole entry partner): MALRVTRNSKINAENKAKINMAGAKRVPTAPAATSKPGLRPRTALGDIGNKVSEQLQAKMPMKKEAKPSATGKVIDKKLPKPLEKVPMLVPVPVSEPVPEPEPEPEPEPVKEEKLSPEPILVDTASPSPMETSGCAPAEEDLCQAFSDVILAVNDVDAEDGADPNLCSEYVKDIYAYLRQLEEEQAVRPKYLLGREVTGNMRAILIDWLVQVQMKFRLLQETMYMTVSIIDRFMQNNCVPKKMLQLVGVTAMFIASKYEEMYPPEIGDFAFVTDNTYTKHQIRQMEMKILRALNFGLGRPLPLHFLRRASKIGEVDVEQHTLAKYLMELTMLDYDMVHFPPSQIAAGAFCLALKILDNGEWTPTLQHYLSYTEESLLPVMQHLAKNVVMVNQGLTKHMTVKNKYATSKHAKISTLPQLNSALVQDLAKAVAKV
Method: Recombinant CDK1- and CycB-GST-fusion proteins, purified from baculovirus-infected insect cells (Sf9), were purchased from ProQinase GmbH, Freiburg. Histone IIIS, used as a kinase substrate, is available commercially from the Sigma Company.
The reaction was stopped by adding EDTA solution (250 mmol, pH 8.0, 14 μl/measuring point).
(§2) From each reaction batch, 10 μl was applied to P30 filter strips (Wallac Company), and non-incorporated 33P-ATP was removed by subjecting the filter strips to three washing cycles for 10 minutes each in 0.5% phosphoric acid. After the filter strips were dried for one hour at 70° C., the filter strips were covered with scintillator strips (MeltiLex™ A, Wallac Company) and baked for one hour at 90° C. The amount of incorporated 33P (substrate phosphorylation) was determined by scintillation measurement in a gamma-radiation measuring device (Wallac).

[3] = target: T2, CDK2/CycE (Homo sapiens, UniProt P24941); test: CDK2/CycE Kinase Assay; type: biochemical; details: histone IIIS substrate, 33P-ATP, 15 minutes at 22° C.
T2 construct: GST; purchased ProQinase GmbH, Freiburg; host or cells: baculovirus-infected insect cells (Sf9)
Method: Recombinant CDK2- and CycE-GST-fusion proteins, purified from baculovirus-infected insect cells (Sf9), were purchased by ProQinase GmbH, Freiburg. Histone IIIs, which was used as a kinase substrate, was purchased by the Sigma Company.
CDK2/CycE (50 ng/measuring point) was incubated for 15 minutes at 22° C. in the presence of various concentrations of test substances (0 μm, as well as within the range of 0.01-100 μm) in assay buffer [50 mmol of tris/HCl, pH 8.0, 10 mmol of MgCl2, 0.1 mmol of Na ortho-vanadate, 1.0 mmol of dithiothreitol, 0.5 μm of adenosine triphosphate (ATP), 10 μg/measuring point of histone IIIS, 0.2 μCi/measuring point of ^33P-gamma ATP, 0.05% NP40, 12.5% dimethyl sulfoxide]. The reaction was stopped by adding EDTA solution (250 mmol, pH 8.0, 14 μl/measuring point).
as §2, with “^33P-ATP” for “33P-ATP”, “^33P” for “33P”

[4] = target: T3, VEGF receptor tyrosine kinase-2 (Homo sapiens, UniProt P35968); test: VEGF Receptor-2 Kinase Assay; type: biochemical; details: poly-(Glu4Tyr) substrate, 33P-ATP, 10 minutes at 22° C.; read-out: VEGF-R2 IC50
T3 construct: GST; made in house; host or cells: baculovirus-infected insect cells (Sf9)
T3 sequence (P35968 20-1356): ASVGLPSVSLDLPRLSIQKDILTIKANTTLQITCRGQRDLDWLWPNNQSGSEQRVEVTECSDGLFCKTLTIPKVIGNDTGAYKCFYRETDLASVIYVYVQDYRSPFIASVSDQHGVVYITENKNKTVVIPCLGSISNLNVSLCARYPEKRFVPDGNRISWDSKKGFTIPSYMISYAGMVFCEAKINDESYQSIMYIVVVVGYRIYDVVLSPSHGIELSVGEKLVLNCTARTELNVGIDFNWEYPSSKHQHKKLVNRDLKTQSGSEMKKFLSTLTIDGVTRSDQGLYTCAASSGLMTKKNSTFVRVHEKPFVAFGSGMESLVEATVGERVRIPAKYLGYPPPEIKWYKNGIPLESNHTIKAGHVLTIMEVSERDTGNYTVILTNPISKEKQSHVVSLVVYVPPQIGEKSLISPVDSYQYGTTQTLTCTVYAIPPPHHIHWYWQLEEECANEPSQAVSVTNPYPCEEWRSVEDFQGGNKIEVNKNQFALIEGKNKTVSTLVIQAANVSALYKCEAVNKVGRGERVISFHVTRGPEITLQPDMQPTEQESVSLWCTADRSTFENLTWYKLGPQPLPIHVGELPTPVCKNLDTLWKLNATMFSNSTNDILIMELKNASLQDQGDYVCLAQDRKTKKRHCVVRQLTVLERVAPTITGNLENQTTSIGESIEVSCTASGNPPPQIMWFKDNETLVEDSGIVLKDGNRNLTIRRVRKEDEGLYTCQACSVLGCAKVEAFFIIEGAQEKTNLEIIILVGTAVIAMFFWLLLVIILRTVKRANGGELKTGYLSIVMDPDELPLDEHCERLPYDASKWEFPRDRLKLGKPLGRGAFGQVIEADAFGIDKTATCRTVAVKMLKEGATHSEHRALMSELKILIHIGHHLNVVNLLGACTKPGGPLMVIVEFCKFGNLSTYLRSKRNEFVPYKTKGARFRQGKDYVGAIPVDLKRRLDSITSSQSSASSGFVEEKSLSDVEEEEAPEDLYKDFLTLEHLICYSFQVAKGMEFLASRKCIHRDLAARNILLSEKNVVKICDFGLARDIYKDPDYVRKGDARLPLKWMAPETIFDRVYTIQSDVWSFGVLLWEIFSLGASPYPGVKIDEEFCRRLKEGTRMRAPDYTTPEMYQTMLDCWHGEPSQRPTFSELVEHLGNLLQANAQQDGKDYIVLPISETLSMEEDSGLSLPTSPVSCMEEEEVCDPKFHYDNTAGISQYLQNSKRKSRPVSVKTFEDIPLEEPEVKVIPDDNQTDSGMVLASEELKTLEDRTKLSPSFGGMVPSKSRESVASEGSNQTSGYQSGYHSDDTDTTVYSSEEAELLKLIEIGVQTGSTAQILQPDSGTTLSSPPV
Method: VEGF Receptor-2 Kinase Assay
Recombinant VEGF receptor tyrosine kinase-2 was purified as a GST fusion protein from baculovirus-infected insect cells (Sf9). Poly-(Glu4Tyr), which was used as a kinase substrate, was purchased by the Sigma Company.
VEGF receptor tyrosine kinase (90 ng/measuring point) was incubated for 10 minutes at 22° C. in the presence of various concentrations of test substances (0 μm, as well as within the range of 0.001-30 μm) in 30 μl of assay buffer [40 mmol of Tris/HCl, […], 10 mmol of MgCl2, 1 mmol of MnCl2, 3 μmol of Na ortho-vanadate, 1.0 mmol of dithiothreitol, 8 μmol of adenosine trisphosphate (ATP), 27 μg/measuring point of poly-(Glu4Tyr), 0.2 μCi/measuring point of 33P-gamma ATP, 1% dimethyl sulfoxide]. The reaction was stopped by adding EDTA solution (250 mmol, pH 7.0, 10 μl/measuring point).
as §2

[5] = tested on: DU 145, hormone-independent human prostate cancer cells; test: Proliferation assay, DU145; type: cell-based; details: DU-145, 96 h, 4 days incubation, crystal violet
Excerpt: as §1

Row | IC50 [1] | IC50 [2] | IC50 [4] | further results | Compound
1 | < 100 nM | 5 nM | – | – | C[C@@H](O)[C@@H](C)Oc1nc(Nc2ccc(S(=N)(=O)CCO)cc2)ncc1Br (mixture of isomers) [Example 1.21, (RS)-S-[4-({5-bromo-4-[(1R,2R)-2-hydroxy-1-methyl-propoxy]pyrimidin-2-yl}amino)phenyl]-S-(2-hydroxyethyl)sulfoximide]
2 | – | 7 nM | – | IC50 [3]: 4 nM | CN=S(C)(=O)c1ccc(Nc2ncc(Br)c(N[C@H](C)[C@@H](C)O)n2)cc1 (mixture of isomers) [Example 1.29, (RS)-S-[4-({5-bromo-4-[(1R,2R)-(2-hydroxy-1-methylpropyl)amino]pyrimidin-2-yl}amino)phenyl]-N,S-dimethyl-sulfoximide]
3 | – | 15 nM | – | IC50 [3]: 6 nM | CN=S(C)(=O)c1ccc(Nc2ncc(Br)c(N[C@H](C)[C@@H](C)O)n2)cc1 (mixture of isomers) [Example 1.30, (RS)-S-[4-({5-bromo-4-[(1R,2R)-(2-hydroxy-1-methylpropyl)amino]pyrimidin-2-yl}amino)phenyl]-N,S-dimethyl-sulfoximide]
4 | 1000 nM | 200 nM | 450 nM | – | CCOC(=O)N=S(=O)(CC)c1ccc(Nc2ncc(Br)c(N[C@H](COC)[C@@H](C)O)n2)cc1 (mixture of isomers) [Example 1.33, (RS)-S-{4-[(5-bromo-4-{[(1R,2R)-2-hydroxy-1-(methoxymethyl)propyl]amino}pyrimidin-2-yl)amino]phenyl}-N-(ethoxycarbonyl)-S-ethyl sulfoximide]
5 | 800 nM | – | 530 nM | IC50 [3]: 28 nM | CCOC(=O)N=S(C)(=O)c1ccc(Nc2ncc(Br)c(N[C@H](COC)[C@@H](C)O)n2)cc1 (mixture of isomers) [Example 1.34, (RS)-S-{4-[(5-bromo-4-{[(1R,2R)-2-hydroxy-1-(methoxymethyl)propyl]amino}pyrimidin-2-yl)amino]phenyl}-N-(ethoxycarbonyl)-S-methyl sulfoximide]
6 | < 100 nM | – | – | – | C[C@@H](O)[C@@H](C)Nc1nc(Nc2ccc(S(C)(=N)=O)cc2)ncc1Br (mixture of isomers) [Example 1.43, (RS)-S-[4-({5-bromo-4-[(1R,2R)-(2-hydroxy-1-methylpropyl)amino]pyrimidin-2-yl}amino)phenyl]-S-methyl sulfoximide]
7 | – | 11 nM | – | IC50 [3]: 4 nM | COC[C@@H](Nc1nc(Nc2ccc(S(C)(=N)=O)cc2)ncc1Br)[C@@H](C)O (mixture of isomers) [Example 1.46, (RS)-S-{4-[(5-bromo-4-{[(1R,2R)-2-hydroxy-1-(methoxymethyl)-propyl]amino}pyrimidin-2-yl)amino]phenyl}-S-methyl sulfoximide]
8 | – | 27 nM | – | – | COC[C@@H](Nc1nc(Nc2ccc(S(C)(=N)=O)cc2)ncc1Br)[C@@H](C)O (mixture of isomers) [Example 1.47, (RS)-S-{4-[(5-bromo-4-{[(1R,2R)-2-hydroxy-1-(methoxymethyl)-propyl]amino}pyrimidin-2-yl)amino]phenyl}-S-methyl sulfoximide]
9 | – | – | 470 nM | – | CCS(=N)(=O)c1ccc(Nc2ncc(Br)c(N[C@H](COC)[C@@H](C)O)n2)cc1 (mixture of isomers) [Example 1.49, (RS)-S-{4-[(5-bromo-4-{[(1R,2R)-2-hydroxy-1-(methoxymethyl)-propyl]amino}pyrimidin-2-yl)amino]phenyl}-S-ethyl sulfoximide]
10 | – | – | 230 nM | – | CCS(=N)(=O)c1ccc(Nc2ncc(Br)c(N[C@H](COC)[C@@H](C)O)n2)cc1 (mixture of isomers) [Example 1.50, (RS)-S-{4-[(5-bromo-4-{[(1R,2R)-2-hydroxy-1-(methoxymethyl)-propyl]amino}pyrimidin-2-yl)amino]phenyl}-S-ethyl sulfoximide]
11 | – | 11 nM | – | – | CCS(=N)(=O)c1ccc(Nc2ncc(Br)c(N[C@H](C)[C@@H](C)O)n2)cc1 (mixture of isomers) [Example 1.53, (RS)-S-[4-({5-bromo-4-[(1R,2R)-(2-hydroxy-1-methylpropyl)amino]pyrimidin-2-yl}amino)phenyl]-S-ethyl sulfoximide]
12 | < 100 nM | – | 66 nM | – | Cc1cc(Nc2ncc(Br)c(N[C@H](C)C(C)(C)O)n2)ccc1S(C)(=N)=O (mixture of isomers) [Example 1.57, (RS)-S-[4-({5-bromo-4-[(R)-(2-hydroxy-1,2-dimethylpropyl)amino]pyrimidin-2-yl}amino)-2-methylphenyl]-S-methyl sulfoximide]
13 | – | – | 45 nM | – | Cc1cc(Nc2ncc(Br)c(N[C@H](C)C(C)(C)O)n2)ccc1S(C)(=N)=O (mixture of isomers) [Example 1.58, (RS)-S-[4-({5-bromo-4-[(R)-(2-hydroxy-1,2-dimethylpropyl)amino]pyrimidin-2-yl}amino)-2-methylphenyl]-S-methyl sulfoximide]
14 | – | – | 48 nM | – | Cc1cc(Nc2ncc(Br)c(N[C@H](C)C(C)(C)O)n2)ccc1S(C)(=N)=O (mixture of isomers) [Example 1.59, (RS)-S-[4-({5-bromo-4-[(R)-(2-hydroxy-1,2-dimethylpropyl)amino]pyrimidin-2-yl}amino)-2-methylphenyl]-S-methyl sulfoximide]
15 | 1000 nM | 72 nM | – | – | CC(O)CSc1nc(Nc2ccc(S(C)(=N)=O)cc2)ncc1Br (racemic) [Example 3.4, (RS)-S-[4-({5-bromo-4-[(RS)-(2-hydroxy-propyl)sulfanyl]pyrimidin-2-yl}amino)phenyl]-S-methyl sulfoximide]
16 | 1000 nM | 55 nM | – | IC50 [3]: 8 nM | CC(C)(O)CSc1nc(Nc2ccc(S(C)(=N)=O)cc2)ncc1Br (racemic) [Example 3.9, (RS)-S-[4-({5-bromo-4-[(2-hydroxy-2-methyl-propyl)sulfanyl]pyrimidin-2-yl}amino)phenyl]-S-methyl sulfoximide]
17 | < 100 nM | – | – | – | COc1cc(Nc2ncc(Br)c(N[C@H](C)[C@@H](C)O)n2)ccc1S(C)(=N)=O (single isomer, unassigned) [Example 1.25]
18 | – | – | – | IC50 [5]: 70 nM | COc1cc(Nc2ncc(Br)c(N[C@H](C)[C@@H](C)O)n2)ccc1S(C)(=N)=O (single isomer, unassigned) [Example 1.26]

— patent US7338958B2, “Sulfoximine-substituted pyrimidines as CDK-and/or VEGF inhibitors, their production and use as pharmaceutical agents” (Schering AG, priority 2003, dated 2008)
